# Tests used:
# [1] = tested on: Tyrosine-protein kinase ABL1 (Homo sapiens), P00519 [M351T]; conditions: Compound concentration 1000.0 nM
# [2] = target: Activin receptor type-2A (Homo sapiens) (UniProt P27037); conditions: Compound concentration 1000.0 nM
# [3] = target: Activin receptor type-1-like (Homo sapiens) (UniProt P37023); conditions: Compound concentration 1000.0 nM
# [4] = target: Cytoplasmic tyrosine-protein kinase BMX (Homo sapiens) (UniProt P51813); conditions: Compound concentration 1000.0 nM
# [5] = tested on: Serine/threonine-protein kinase B-raf (Homo sapiens), P15056 [V600E]; conditions: Compound concentration 1000.0 nM
# [6] = target: Serine/threonine-protein kinase BRSK1 (Homo sapiens) (UniProt Q8TDC3); conditions: Compound concentration 1000.0 nM
# [7] = target: Calcium/calmodulin-dependent protein kinase type 1B (Homo sapiens) (UniProt Q6P2M8); conditions: Compound concentration 1000.0 nM
# [8] = target: Cyclin-dependent kinase 4 (Homo sapiens) (UniProt P11802); conditions: Compound concentration 1000.0 nM
# [9] = target: Cyclin-dependent kinase-like 5 (Homo sapiens) (UniProt O76039); conditions: Compound concentration 1000.0 nM
# [10] = target: Serine/threonine-protein kinase Chk1 (Homo sapiens) (UniProt O14757); conditions: Compound concentration 1000.0 nM
# [11] = target: Casein kinase II subunit alpha (Homo sapiens) (UniProt P68400); conditions: Compound concentration 1000.0 nM
# [12] = target: Epithelial discoidin domain-containing receptor 1 (Homo sapiens) (UniProt Q08345); conditions: Compound concentration 1000.0 nM
# [13] = tested on: Epidermal growth factor receptor (Homo sapiens), P00533 [L858R,T790M]; conditions: Compound concentration 1000.0 nM
# [14] = tested on: Epidermal growth factor receptor (Homo sapiens), P00533 [L861Q]; conditions: Compound concentration 1000.0 nM
# [15] = target: Ephrin type-A receptor 4 (Homo sapiens) (UniProt P54764); conditions: Compound concentration 1000.0 nM
# [16] = target: Fibroblast growth factor receptor 4 (Homo sapiens) (UniProt P22455); conditions: Compound concentration 1000.0 nM
# [17] = tested on: Receptor-type tyrosine-protein kinase FLT3 (Homo sapiens), P36888 [UNDEFINED MUTATION]; conditions: Compound concentration 1000.0 nM
# [18] = tested on: Receptor-type tyrosine-protein kinase FLT3 (Homo sapiens), P36888 [R834Q]; conditions: Compound concentration 1000.0 nM
# [19] = tested on: eIF-2-alpha kinase GCN2 (Homo sapiens), Q9P2K8 [S808G]; conditions: Compound concentration 1000.0 nM
# [20] = target: Rhodopsin kinase GRK1 (Homo sapiens) (UniProt Q15835); conditions: Compound concentration 1000.0 nM
# [21] = target: G protein-coupled receptor kinase 4 (Homo sapiens) (UniProt P32298); conditions: Compound concentration 1000.0 nM
# [22] = target: Tyrosine-protein kinase HCK (Homo sapiens) (UniProt P08631); conditions: Compound concentration 1000.0 nM
# [23] = target: Interleukin-1 receptor-associated kinase 4 (Homo sapiens) (UniProt Q9NWZ3); conditions: Compound concentration 1000.0 nM
# [24] = target: Serine/threonine-protein kinase LATS1 (Homo sapiens) (UniProt O95835); conditions: Compound concentration 1000.0 nM
# [25] = target: Mitogen-activated protein kinase kinase kinase 2 (Homo sapiens) (UniProt Q9Y2U5); conditions: Compound concentration 1000.0 nM
# [26] = target: MAP kinase-activated protein kinase 2 (Homo sapiens) (UniProt P49137); conditions: Compound concentration 1000.0 nM
# [27] = tested on: Hepatocyte growth factor receptor (Homo sapiens), P08581 [M1250T]; conditions: Compound concentration 1000.0 nM
# [28] = target: MAP kinase-interacting serine/threonine-protein kinase 2 (Homo sapiens) (UniProt Q9HBH9); conditions: Compound concentration 1000.0 nM
# [29] = target: Mitogen-activated protein kinase kinase kinase 9 (Homo sapiens) (UniProt P80192); conditions: Compound concentration 1000.0 nM
# [30] = target: Serine/threonine-protein kinase 3 (Homo sapiens) (UniProt Q13188); conditions: Compound concentration 1000.0 nM
# [31] = target: Serine/threonine-protein kinase 38-like (Homo sapiens) (UniProt Q9Y2H1); conditions: Compound concentration 1000.0 nM
# [32] = target: Serine/threonine-protein kinase Nek11 (Homo sapiens) (UniProt Q8NG66); conditions: Compound concentration 1000.0 nM
# [33] = target: Serine/threonine-protein kinase Nek4 (Homo sapiens) (UniProt P51957); conditions: Compound concentration 1000.0 nM
# [34] = target: Serine/threonine-protein kinase Nek6 (Homo sapiens) (UniProt Q9HC98); conditions: Compound concentration 1000.0 nM
# [35] = target: Mitogen-activated protein kinase 13 (Homo sapiens) (UniProt O15264); conditions: Compound concentration 1000.0 nM
# [36] = target: Serine/threonine-protein kinase PAK 3 (Homo sapiens) (UniProt O75914); conditions: Compound concentration 1000.0 nM
# [37] = tested on: Phosphatidylinositol 4,5-bisphosphate 3-kinase catalytic subunit alpha isoform (Homo sapiens), P42336 [Q546K]; conditions: Compound concentration 1000.0 nM
# [38] = target: Phosphatidylinositol 4,5-bisphosphate 3-kinase catalytic subunit delta isoform (Homo sapiens) (UniProt O00329); conditions: Compound concentration 1000.0 nM
# [39] = target: Serine/threonine-protein kinase Sgk3 (Homo sapiens) (UniProt Q96BR1); conditions: Compound concentration 1000.0 nM
# [40] = target: Mitogen-activated protein kinase kinase kinase 7 (Homo sapiens) (UniProt O43318); conditions: Compound concentration 1000.0 nM
# [41] = target: Serine/threonine-protein kinase TAO1 (Homo sapiens) (UniProt Q7L7X3); conditions: Compound concentration 1000.0 nM
# [42] = target: TGF-beta receptor type-2 (Homo sapiens) (UniProt P37173); conditions: Compound concentration 1000.0 nM
# [43] = target: Transient receptor potential cation channel subfamily M member 6 (Homo sapiens) (UniProt Q9BX84); conditions: Compound concentration 1000.0 nM
# [44] = target: 5-hydroxytryptamine receptor 2C (Homo sapiens) (UniProt P28335); conditions: Compound concentration 10.0 uM
# [45] = target: Muscarinic acetylcholine receptor M5 (Homo sapiens) (UniProt P08912); conditions: Compound concentration 10.0 uM
# Sequence of Serine/threonine-protein kinase PAK 3 (Homo sapiens) (O75914 whole entry, looked up, canonical isoform): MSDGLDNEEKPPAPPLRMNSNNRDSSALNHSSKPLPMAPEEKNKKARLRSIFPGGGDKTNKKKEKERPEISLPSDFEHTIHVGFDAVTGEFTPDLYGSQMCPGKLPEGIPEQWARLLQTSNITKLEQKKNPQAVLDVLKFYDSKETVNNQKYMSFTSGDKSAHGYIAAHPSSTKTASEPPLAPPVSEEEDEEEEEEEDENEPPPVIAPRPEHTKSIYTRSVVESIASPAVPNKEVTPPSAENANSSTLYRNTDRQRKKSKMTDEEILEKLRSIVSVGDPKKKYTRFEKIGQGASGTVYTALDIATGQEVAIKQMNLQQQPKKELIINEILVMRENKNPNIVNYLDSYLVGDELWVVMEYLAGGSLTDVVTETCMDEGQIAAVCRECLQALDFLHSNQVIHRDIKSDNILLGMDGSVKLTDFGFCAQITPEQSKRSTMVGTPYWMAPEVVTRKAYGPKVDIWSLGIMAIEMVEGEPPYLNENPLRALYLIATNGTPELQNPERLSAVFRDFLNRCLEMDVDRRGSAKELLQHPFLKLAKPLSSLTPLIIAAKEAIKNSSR
# Sequence of Ephrin type-A receptor 4 (Homo sapiens) (P54764 whole entry): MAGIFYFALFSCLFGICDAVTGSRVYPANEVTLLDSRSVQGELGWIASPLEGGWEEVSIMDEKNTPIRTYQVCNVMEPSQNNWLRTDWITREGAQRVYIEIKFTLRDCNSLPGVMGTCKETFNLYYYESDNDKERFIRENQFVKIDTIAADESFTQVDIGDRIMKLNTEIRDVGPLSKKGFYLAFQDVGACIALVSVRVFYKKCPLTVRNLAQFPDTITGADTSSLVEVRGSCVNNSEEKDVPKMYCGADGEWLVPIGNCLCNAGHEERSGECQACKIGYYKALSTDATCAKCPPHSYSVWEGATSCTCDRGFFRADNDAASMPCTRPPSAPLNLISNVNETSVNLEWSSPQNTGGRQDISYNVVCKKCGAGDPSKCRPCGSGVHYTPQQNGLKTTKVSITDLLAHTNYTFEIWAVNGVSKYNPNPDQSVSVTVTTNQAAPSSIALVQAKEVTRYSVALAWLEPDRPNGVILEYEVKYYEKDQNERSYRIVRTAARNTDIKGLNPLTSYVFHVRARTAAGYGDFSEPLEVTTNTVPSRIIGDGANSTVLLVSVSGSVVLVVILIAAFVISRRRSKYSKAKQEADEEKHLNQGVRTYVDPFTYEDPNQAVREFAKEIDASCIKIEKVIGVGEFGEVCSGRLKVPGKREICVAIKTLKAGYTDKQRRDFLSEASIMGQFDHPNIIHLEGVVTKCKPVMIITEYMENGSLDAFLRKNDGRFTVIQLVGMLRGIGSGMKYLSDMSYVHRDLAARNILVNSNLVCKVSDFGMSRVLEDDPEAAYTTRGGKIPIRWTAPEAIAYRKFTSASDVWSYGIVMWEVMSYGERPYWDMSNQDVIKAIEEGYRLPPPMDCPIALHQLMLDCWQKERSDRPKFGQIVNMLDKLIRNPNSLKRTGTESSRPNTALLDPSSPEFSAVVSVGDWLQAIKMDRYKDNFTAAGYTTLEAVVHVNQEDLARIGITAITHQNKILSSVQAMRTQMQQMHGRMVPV
# Sequence of Serine/threonine-protein kinase TAO1 (Homo sapiens) (Q7L7X3 whole entry): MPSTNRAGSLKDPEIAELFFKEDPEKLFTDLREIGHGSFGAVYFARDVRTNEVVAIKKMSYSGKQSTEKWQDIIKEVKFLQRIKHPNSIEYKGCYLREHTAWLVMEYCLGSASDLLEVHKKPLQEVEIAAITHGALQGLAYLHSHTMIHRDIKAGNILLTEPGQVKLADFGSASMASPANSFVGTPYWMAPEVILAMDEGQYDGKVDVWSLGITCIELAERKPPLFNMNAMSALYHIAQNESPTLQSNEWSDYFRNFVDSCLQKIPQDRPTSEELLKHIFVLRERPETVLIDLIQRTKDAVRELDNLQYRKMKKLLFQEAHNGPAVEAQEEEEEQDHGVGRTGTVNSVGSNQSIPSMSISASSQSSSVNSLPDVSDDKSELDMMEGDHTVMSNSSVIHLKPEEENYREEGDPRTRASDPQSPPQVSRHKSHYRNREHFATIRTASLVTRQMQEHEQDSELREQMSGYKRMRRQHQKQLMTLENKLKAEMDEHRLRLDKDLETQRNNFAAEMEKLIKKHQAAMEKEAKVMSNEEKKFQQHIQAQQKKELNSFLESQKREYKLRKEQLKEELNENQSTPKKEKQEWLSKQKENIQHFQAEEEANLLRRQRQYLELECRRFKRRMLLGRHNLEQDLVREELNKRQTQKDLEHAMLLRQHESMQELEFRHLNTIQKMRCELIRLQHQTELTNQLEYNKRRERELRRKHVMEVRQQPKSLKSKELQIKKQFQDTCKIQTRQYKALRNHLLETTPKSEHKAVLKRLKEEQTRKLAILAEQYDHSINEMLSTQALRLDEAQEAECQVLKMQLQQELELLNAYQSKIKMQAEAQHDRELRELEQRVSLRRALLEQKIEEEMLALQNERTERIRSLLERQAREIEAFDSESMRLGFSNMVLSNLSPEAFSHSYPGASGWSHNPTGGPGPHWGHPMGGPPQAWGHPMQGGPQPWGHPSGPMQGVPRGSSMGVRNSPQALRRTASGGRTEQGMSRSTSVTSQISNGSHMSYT
# Sequence of Rhodopsin kinase GRK1 (Homo sapiens) (Q15835 whole entry): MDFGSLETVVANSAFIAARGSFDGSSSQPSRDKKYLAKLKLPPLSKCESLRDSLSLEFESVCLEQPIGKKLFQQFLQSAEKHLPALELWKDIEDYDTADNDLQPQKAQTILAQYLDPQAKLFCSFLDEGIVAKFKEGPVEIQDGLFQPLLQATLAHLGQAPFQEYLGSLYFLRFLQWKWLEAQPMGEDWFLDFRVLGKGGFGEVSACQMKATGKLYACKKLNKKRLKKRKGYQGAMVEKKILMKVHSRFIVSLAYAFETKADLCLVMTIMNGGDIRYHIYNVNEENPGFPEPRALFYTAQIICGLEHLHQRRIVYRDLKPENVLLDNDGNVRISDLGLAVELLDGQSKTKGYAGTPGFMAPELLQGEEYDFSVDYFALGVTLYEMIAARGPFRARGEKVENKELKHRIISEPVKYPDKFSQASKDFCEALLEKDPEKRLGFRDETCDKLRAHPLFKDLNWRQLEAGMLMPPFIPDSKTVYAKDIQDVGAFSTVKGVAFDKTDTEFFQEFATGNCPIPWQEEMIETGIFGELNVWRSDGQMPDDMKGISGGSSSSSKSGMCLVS
# Sequence of Activin receptor type-1-like (Homo sapiens) (P37023 whole entry): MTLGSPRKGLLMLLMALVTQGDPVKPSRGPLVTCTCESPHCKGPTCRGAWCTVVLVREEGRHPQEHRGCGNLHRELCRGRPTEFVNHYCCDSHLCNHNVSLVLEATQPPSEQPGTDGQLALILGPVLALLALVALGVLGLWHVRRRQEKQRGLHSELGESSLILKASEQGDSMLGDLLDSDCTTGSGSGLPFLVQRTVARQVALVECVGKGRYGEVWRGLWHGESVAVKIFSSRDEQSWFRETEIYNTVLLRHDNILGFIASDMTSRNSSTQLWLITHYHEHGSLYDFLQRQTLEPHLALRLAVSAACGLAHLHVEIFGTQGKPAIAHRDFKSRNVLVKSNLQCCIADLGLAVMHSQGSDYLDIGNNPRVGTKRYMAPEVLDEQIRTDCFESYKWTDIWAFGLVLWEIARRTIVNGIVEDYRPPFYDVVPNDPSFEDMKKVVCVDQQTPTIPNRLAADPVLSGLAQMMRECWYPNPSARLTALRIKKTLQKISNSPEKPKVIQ
# Sequence of Mitogen-activated protein kinase kinase kinase 2 (Homo sapiens) (Q9Y2U5 whole entry): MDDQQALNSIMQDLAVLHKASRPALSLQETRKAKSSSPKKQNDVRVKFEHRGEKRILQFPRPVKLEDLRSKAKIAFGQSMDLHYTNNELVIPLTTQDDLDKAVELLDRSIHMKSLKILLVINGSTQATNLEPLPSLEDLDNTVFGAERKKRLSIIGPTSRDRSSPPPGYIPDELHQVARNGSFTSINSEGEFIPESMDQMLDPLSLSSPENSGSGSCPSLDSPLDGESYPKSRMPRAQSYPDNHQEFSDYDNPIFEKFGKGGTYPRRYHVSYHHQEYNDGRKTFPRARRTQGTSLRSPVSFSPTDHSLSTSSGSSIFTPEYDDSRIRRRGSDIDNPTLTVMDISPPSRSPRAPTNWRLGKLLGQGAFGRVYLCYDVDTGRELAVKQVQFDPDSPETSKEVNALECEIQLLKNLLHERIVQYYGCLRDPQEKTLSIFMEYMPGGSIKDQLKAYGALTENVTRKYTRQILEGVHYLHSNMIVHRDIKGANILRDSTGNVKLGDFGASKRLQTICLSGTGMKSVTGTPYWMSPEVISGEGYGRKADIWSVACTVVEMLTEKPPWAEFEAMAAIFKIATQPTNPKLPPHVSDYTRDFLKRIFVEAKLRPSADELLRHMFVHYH
# Sequence of Cytoplasmic tyrosine-protein kinase BMX (Homo sapiens) (P51813 whole entry): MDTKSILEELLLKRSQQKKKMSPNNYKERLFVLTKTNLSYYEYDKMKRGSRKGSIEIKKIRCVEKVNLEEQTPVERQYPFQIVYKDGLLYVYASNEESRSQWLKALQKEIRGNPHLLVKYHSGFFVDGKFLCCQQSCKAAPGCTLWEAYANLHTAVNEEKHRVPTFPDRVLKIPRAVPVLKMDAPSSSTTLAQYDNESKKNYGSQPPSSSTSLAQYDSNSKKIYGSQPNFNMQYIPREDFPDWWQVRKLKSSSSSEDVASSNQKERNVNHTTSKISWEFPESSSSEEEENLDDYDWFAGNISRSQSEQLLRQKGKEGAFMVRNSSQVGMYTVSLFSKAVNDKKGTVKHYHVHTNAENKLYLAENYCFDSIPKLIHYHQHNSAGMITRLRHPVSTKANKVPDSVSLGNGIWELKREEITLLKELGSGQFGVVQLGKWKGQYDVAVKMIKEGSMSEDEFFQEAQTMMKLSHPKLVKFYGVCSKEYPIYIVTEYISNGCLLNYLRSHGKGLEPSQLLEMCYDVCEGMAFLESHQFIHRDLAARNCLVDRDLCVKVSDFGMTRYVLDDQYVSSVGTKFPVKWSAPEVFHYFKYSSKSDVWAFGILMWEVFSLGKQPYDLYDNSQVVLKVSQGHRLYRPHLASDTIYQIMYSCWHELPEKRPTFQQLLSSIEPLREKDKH
structure (smiles),measurement,setting,value
O=C(Nc1ccc(Oc2ccc(F)cc2)cc1)N1CCc2ncccc2[C@H]1c1ccc(F)cc1 [BAY-897],residual activity,[1],51%
same,residual activity,[2],100%
same,residual activity,[3],81%
same,residual activity,[4],100%
same,residual activity,[5],93%
same,residual activity,[6],100%
same,residual activity,[7],96%
same,residual activity,[8],96%
same,residual activity,[9],100%
same,residual activity,[10],100%
same,residual activity,[11],99%
same,residual activity,[12],100%
same,residual activity,[13],71%
same,residual activity,[14],83%
same,residual activity,[15],100%
same,residual activity,[16],95%
same,residual activity,[17],93%
same,residual activity,[18],97%
same,residual activity,[19],100%
same,residual activity,[20],91%
same,residual activity,[21],93%
same,residual activity,[22],100%
same,residual activity,[23],96%
same,residual activity,[24],86%
same,residual activity,[25],89%
same,residual activity,[26],98%
same,residual activity,[27],97%
same,residual activity,[28],91%
same,residual activity,[29],100%
same,residual activity,[30],94%
same,residual activity,[31],76%
same,residual activity,[32],100%
same,residual activity,[33],94%
same,residual activity,[34],100%
same,residual activity,[35],96%
same,residual activity,[36],100%
same,residual activity,[37],75%
same,residual activity,[38],93%
same,residual activity,[39],97%
same,residual activity,[40],89%
same,residual activity,[41],100%
same,residual activity,[42],91%
same,residual activity,[43],100%
same,inhibition,[44],68.4%
same,inhibition,[45],-1.7%
O=C(Nc1cnc(Oc2ccc(F)cc2)nc1)N1CCc2ncccc2[C@@H]1c1ccc(F)cc1 [BAY-899],residual activity,[1],57%
same,residual activity,[2],83%
same,residual activity,[3],99%
same,residual activity,[4],94%
same,residual activity,[5],83%
same,residual activity,[6],87%
same,residual activity,[7],100%
same,residual activity,[8],100%
same,residual activity,[9],89%
same,residual activity,[10],84%
same,residual activity,[11],93%
same,residual activity,[12],95%
same,residual activity,[13],70%
same,residual activity,[14],85%
same,residual activity,[15],88%
same,residual activity,[16],98%
same,residual activity,[17],79%
same,residual activity,[18],99%
same,residual activity,[19],85%
same,residual activity,[20],91%
same,residual activity,[21],67%
same,residual activity,[22],96%
same,residual activity,[23],95%
same,residual activity,[24],100%
same,residual activity,[25],99%
same,residual activity,[26],80%
same,residual activity,[27],100%
same,residual activity,[28],94%
same,residual activity,[29],92%
same,residual activity,[30],100%
same,residual activity,[31],75%
same,residual activity,[32],100%
same,residual activity,[33],79%
same,residual activity,[34],100%
same,residual activity,[35],100%
same,residual activity,[36],100%
same,residual activity,[37],95%
same,residual activity,[38],100%
same,residual activity,[39],100%
same,residual activity,[40],90%
same,residual activity,[41],100%
same,residual activity,[42],100%
same,residual activity,[43],100%
same,inhibition,[44],18.3%
same,inhibition,[45],12%

# Source: ChEMBL document CHEMBL4507317, “Data for DCP probe BAY-899” (2021)
